The structures appear in SMILES notation. Marks after values point to notes of the source that are not given here.

In data set [1] the test system is carrageenan-induced paw edema. Nature of the data set: Rat carrageenan-induced paw edema model. In kind it is in vivo, Sprague Dawley rats. As to conditions: for % inhibition of carrageenan induced paw edema: given before carrageenan challenge; for % inhibition of an established carrageenan induced rat paw edema: given 2 hours post carrageenan challenge. The gist of the method:
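Rats received intraplantar 1% carrageenan (100 ul) under isoflurane. Test compound in 0.5% MC/0.1% SDS was given systemically at 5 mL/kg either 1-3 h before or 2 h after the challenge. Paw swelling was measured by plethysmometer at 2-6 h and expressed as mean % effect.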
(In general: In the carrageenan paw model, swelling and tenderness develop within hours.)

Data set [2] in a line: In vivo rat pharmacokinetics (intravenous and oral). As to conditions: plasma. A digest of the protocol: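 Rats dosed by tail-vein bolus at 0.5–1 mg/kg in NMP-based solutions, or by oral gavage at 1–600 mg/kg as solution, suspension or spray-dried dispersion. Jugular blood in K3EDTA gave plasma or citrate-diluted whole blood; LC-MS/MS quantification, non-compartmental PK analysis.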

The subject of data set [3] is UTP-stimulated Ca2+ response in HT-29 cells. Nature of the data set: Ca FLIPR TETRA assay, ANTAGONIST mode, stimulation with 0.6 μM UTP. In kind it is cell-based, human. As to conditions: Homo sapiens; HT-29 cells, antagonist mode, stimulation with 0.6 μM UTP. The gist of the method: (§1)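 Intracellular calcium is measured by fluorescence in HT-29 cells loaded with calcium 5 reagent. Compounds sit on the cells 30 min at room temperature before challenge with trypsin (3.1 U/mL) or SLIGKV (8 μM) for PAR2, or with thrombin (1 U/mL) or UTP (0.6 μM) as counter-stimuli.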

For data set [4], the system named is tryptase-induced mechanical hypersensitivity. Nature of the data set: Rat tryptase-induced mechanical hypersensitivity model. As to conditions: given 30 minutes post tryptase challenge. Type of data set: in vivo, Sprague Dawley rats. Here is the method: (§2) Male Sprague Dawley rats and BALB/c mice were housed in groups in a temperature controlled room and were acclimatized in the animal facility for at least three days prior to use. Experiments were performed during the light phase of the cycle. Animals have food and water ad libitum.
Example 64: Rat Tryptase-Induced Mechanical Hypersensitivity Model
Peripheral sensitization was induced by intra-dermal administration of 500 ng of tryptase in a volume of 10 ul PBS under isoflurane anesthesia. Rats were then placed on a wire mesh grid in separate compartments and allowed to acclimatize before testing. Mechanical hypersensitivity was assessed 30 min after tryptase injection using calibrated von Frey filaments applied perpendicular to the plantar surface of the affected paw using the up-and-down method. Test compounds or vehicle (0.5% MC/0.1% SDS) were systemically administered at doses indicated in a volume of 5 mL/kg 3-18 h before the tryptase challenge (Table 11) or 30 minutes post tryptase challenge (Table 12).
(§3) Data are expressed as the mean % effect. Statistical significance was assessed using t-test for comparison between naive and inflamed rats, and one-way ANOVA followed by post-hoc comparison test for overall drug effectiveness. A difference between groups is considered significant with a p value of <0.05. *, p<0.05; **, p<0.01; ***, p<0.001 vs. vehicle.

The test system of data set [5] is Thrombin-stimulated Ca2+ response in HT-29 cells. Kind of data set: Ca FLIPR TETRA assay, ANTAGONIST mode, stimulation with 1 U/mL Thrombin. Type of data set: cell-based, human. As to conditions: Homo sapiens; HT-29 cells, antagonist mode, stimulation with 1 U/mL Thrombin. The gist of the method: as §1
In another data set the test system is TNBS-induced colitis. Nature of the data set: Mouse TNBS-induced colitis model. As to conditions: mice. In kind it is in vivo, BALB/c mice. Here is the method:
as §2
Example 65: Mouse TNBS-Induced Colitis Model
Colitis was induced by intra-colonic administration of 1.5 mg of TNBS in 75 μl of 40% v/volume ethanol solution under isoflurane anesthesia at a depth of 4 cm from the anal verge. Mice were kept with their heads down for 30 additional seconds post administration to ensure distribution of TNBS. Disease activity scores were assessed for a period of 5 days starting prior to TNBS injection (baseline reading). […] Test compounds or vehicle (0.5% MC/0.1% SDS) were systemically administered at the indicated doses in a volume of 10 mL/kg each day for 5 days and starting 1 day before TNBS.
as §3

As a reminder, the bioavailability is the share of a dose that reaches the circulation, judged against a reference dose that is usually intravenous. Broadly, the IC50 is the midpoint of a concentration-inhibition curve. As for `Cc1nc(C(=O)N2CCN(C(=O)c3cn4nc(-c5ccc(F)cc5)cc(C(C)(C)C)c4n3)C(C)(C)C2)n[nH]1` [Compound I-343, (8-(tert-butyl)-6-(4-fluorophenyl)imidazo[1,2-b]pyridazin-2-yl)(2,2-dimethyl-4-(5-methyl-1H-1,2,4-triazole-3-carbonyl)piperazin-1-yl)methanone], the “% inhibition of carrageenan induced paw edema” value in data set [1] (dose 0.3 mg/kg) is recorded as 19* %; in data set [1] (dose 3 mg/kg) it was 28* %; in data set [1] (dose 10 mg/kg) it was 34* %; in data set [1] (dose 30 mg/kg), 50*** %. In addition, the “% inhibition of an established carrageenan induced rat paw edema” value in data set [1] (dose 3 mg/kg) is given as 32** %; in data set [1] (dose 10 mg/kg), 49** %; in data set [1] (dose 30 mg/kg) it was 58** %; in data set [1] (dose 60 mg/kg), 70*** %. The clearance in data set [2] (intravenous 0.5 to 1 mg/kg, read-out: Clp) is 3.39 mL/min/kg. Further, the Vd in data set [2] (intravenous, read-out: Vss) is 1.65 L/kg. The bioavailability in data set [2] (oral by gavage) came to 62%. For the same molecule, in data set [2] (read-out: T ½ (converted)), the half-life was 7.03 h. For the same molecule, the values for the IC50 in data set [3] and in data set [5] were 1030 nM and 1110 nM, respectively. The “% inhibition of an established tryptase-induced nociception” value is 12% in data set [4] (dose 3 mg/kg), 23% in data set [4] (dose 10 mg/kg) and 49* % in data set [4] (dose 30 mg/kg). In addition, the figures for the “% improvement in Disease activity scores” value with TNBS-induced colitis (dose 15 mg/kg each day for 5 days starting 1 day before TNBS), with TNBS-induced colitis (dose 50 mg/kg each day for 5 days starting 1 day before TNBS) and in the data set on TNBS-induced colitis (dose 150 mg/kg each day for 5 days starting 1 day before TNBS) were 24%, 33* % and 62*** %, respectively.

The values are drawn from US20190119282A1, “IMIDAZOPYRIDAZINES USEFUL AS INHIBITORS OF THE PAR-2 SIGNALING PATHWAY” (Vertex Pharmaceuticals Incorporated, priority 2013, published 2019).
